Several values for one entry are separate records, joined by “and”; a condition that tells them apart may be missing. Equal entries are not always repeated.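 Exposure lasted 48 hours, with cells grown in 96-well plates and compounds tested at five concentrations. GI50: concentration for 50% inhibition of growth. Definition used: TGI = concentration required for complete inhibition of growth.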
How the values were obtained:
Assay in all cases: NCI tumour cell line growth inhibition, 48 h
CCRF-CEM leukemia = test system: CCRF-CEM leukemia
M14 melanoma = test system: M14 melanoma
NCI/ADR-RES ovarian = test system: NCI/ADR-RES ovarian
HOP-62 NSCLC = test system: HOP-62 NSCLC
A549 NSCLC = test system: A549 NSCLC
UACC-62 melanoma = test system: UACC-62 melanoma
PC-3 prostate = test system: PC-3 prostate
DU-145 prostate = test system: DU-145 prostate
MALME-3M melanoma = test system: MALME-3M melanoma
SK-MEL-2 melanoma = test system: SK-MEL-2 melanoma
KM12 colon = test system: KM12 colon
UACC-257 melanoma = test system: UACC-257 melanoma
CAKI-1 renal = test system: CAKI-1 renal
SK-OV-3 ovarian = test system: SK-OV-3 ovarian
ACHN renal = test system: ACHN renal
MDA-N = test system: MDA-N
OVCAR-4 ovarian = test system: OVCAR-4 ovarian
SK-MEL-5 melanoma = test system: SK-MEL-5 melanoma
SK-MEL-28 melanoma = test system: SK-MEL-28 melanoma
SF-268 CNS = test system: SF-268 CNS
OVCAR-5 ovarian = test system: OVCAR-5 ovarian
SF-539 CNS = test system: SF-539 CNS
A498 renal = test system: A498 renal
OVCAR-3 ovarian = test system: OVCAR-3 ovarian
HCT-15 colon = test system: HCT-15 colon
HT29 colon = test system: HT29 colon
HCT-116 colon = test system: HCT-116 colon
RXF 393 renal = test system: RXF 393 renal
NCI-H23 lung = test system: NCI-H23 lung
SN12C renal = test system: SN12C renal
RPMI-8226 leukemia = test system: RPMI-8226 leukemia
HOP-92 NSCLC = test system: HOP-92 NSCLC
HS 578T breast = test system: HS 578T breast
MOLT-4 leukemia = test system: MOLT-4 leukemia
SNB-19 CNS = test system: SNB-19 CNS
SF-295 CNS = test system: SF-295 CNS
NCI-H522 lung = test system: NCI-H522 lung
NCI-H460 lung = test system: NCI-H460 lung
SNB-75 CNS = test system: SNB-75 CNS
MDA-MB-435 = test system: MDA-MB-435
OVCAR-8 ovarian = test system: OVCAR-8 ovarian
MCF7 breast = test system: MCF7 breast
IGROV1 ovarian = test system: IGROV1 ovarian
786-0 renal = test system: 786-0 renal
COLO 205 colon = test system: COLO 205 colon
LOX IMVI melanoma = test system: LOX IMVI melanoma
SR leukemia = test system: SR leukemia
HCC-2998 colon = test system: HCC-2998 colon
UO-31 renal = test system: UO-31 renal
SW-620 colon = test system: SW-620 colon
BT-549 breast = test system: BT-549 breast
NCI-H226 lung = test system: NCI-H226 lung
T-47D breast = test system: T-47D breast
MDA-MB-231 breast = test system: MDA-MB-231 breast
EKVX NSCLC = test system: EKVX NSCLC
K-562 leukemia = test system: K-562 leukemia
HL-60(TB) leukemia = test system: HL-60(TB) leukemia
TK-10 renal = test system: TK-10 renal
U251 CNS = test system: U251 CNS

c1csc(-c2ccc(-c3cccs3)c3nsnc23)c1
TGI (CCRF-CEM leukemia): 31.5 µM
TGI (M14 melanoma): > 100 µM
TGI (NCI/ADR-RES ovarian): > 83.7 µM
TGI (HOP-62 NSCLC): > 95.7 µM
TGI (A549 NSCLC): > 100 µM
TGI (UACC-62 melanoma): > 100 µM
TGI (PC-3 prostate): > 100 µM
TGI (DU-145 prostate): > 70.6 µM
TGI (MALME-3M melanoma): > 55.8 µM
TGI (SK-MEL-2 melanoma): > 100 µM
TGI (KM12 colon): 22.2 µM
TGI (UACC-257 melanoma): > 100 µM
TGI (CAKI-1 renal): > 100 µM
TGI (SK-OV-3 ovarian): > 96.4 µM
TGI (ACHN renal): > 100 µM
TGI (MDA-N): > 73.4 µM
TGI (OVCAR-4 ovarian): > 100 µM
TGI (SK-MEL-5 melanoma): > 55.5 µM
TGI (SK-MEL-28 melanoma): > 54.2 µM
TGI (SF-268 CNS): > 59.2 µM
TGI (OVCAR-5 ovarian): > 100 µM
TGI (SF-539 CNS): > 51 µM
TGI (A498 renal): > 100 µM
TGI (OVCAR-3 ovarian): > 57.4 µM
TGI (HCT-15 colon): > 41.4 µM
TGI (HT29 colon): > 100 µM
TGI (HCT-116 colon): > 100 µM
TGI (RXF 393 renal): > 64.7 µM
TGI (NCI-H23 lung): > 68.4 µM
TGI (SN12C renal): > 100 µM
TGI (RPMI-8226 leukemia): > 82.4 µM
TGI (HOP-92 NSCLC): > 100 µM
TGI (HS 578T breast): 47.2 µM
TGI (MOLT-4 leukemia): 30.3 µM
TGI (SNB-19 CNS): > 100 µM
TGI (SF-295 CNS): > 100 µM
TGI (NCI-H522 lung): > 100 µM
TGI (NCI-H460 lung): > 100 µM
TGI (SNB-75 CNS): > 100 µM
TGI (MDA-MB-435): > 100 µM
TGI (OVCAR-8 ovarian): > 93.2 µM
TGI (MCF7 breast): > 100 µM
TGI (IGROV1 ovarian): > 88.4 µM
TGI (786-0 renal): > 54 µM
TGI (COLO 205 colon): 27.1 µM
TGI (LOX IMVI melanoma): > 61.9 µM
TGI (SR leukemia): 39.9 µM
TGI (HCC-2998 colon): > 100 µM
TGI (UO-31 renal): > 100 µM
TGI (SW-620 colon): > 50 µM
TGI (BT-549 breast): > 100 µM
TGI (NCI-H226 lung): > 50.2 µM
TGI (T-47D breast): 1.8 µM
TGI (MDA-MB-231 breast): > 31.6 µM
TGI (EKVX NSCLC): > 100 µM
TGI (K-562 leukemia): 37.9 µM
TGI (HL-60(TB) leukemia): 27.1 µM
TGI (TK-10 renal): > 100 µM
TGI (U251 CNS): > 87.5 µM

OC(c1cc(-c2ccc(C(F)(F)F)cc2)nc(C(F)(F)F)c1)C1CCCCN1 (stereo not drawn)
GI50 (CCRF-CEM leukemia): 1.62 µM
TGI (CCRF-CEM leukemia): 3.53 µM and 4.81 µM
TGI (M14 melanoma): 3.12 µM and 3.14 µM
GI50 (NCI/ADR-RES ovarian): 1.65 µM
TGI (NCI/ADR-RES ovarian): 3.1 µM and 5.99 µM
GI50 (HOP-62 NSCLC): 1.75 µM and 2.13 µM
TGI (HOP-62 NSCLC): 3.18 µM and 4.75 µM
GI50 (A549 NSCLC): 1.84 µM and 2.05 µM
TGI (A549 NSCLC): 3.4 µM and 4.92 µM
TGI (UACC-62 melanoma): 3.02 µM and 3.51 µM
GI50 (PC-3 prostate): 1.72 µM
TGI (PC-3 prostate): 3.37 µM and 6.33 µM
GI50 (DU-145 prostate): 1.76 µM and 2.66 µM
TGI (DU-145 prostate): 3.14 µM and 7.06 µM
TGI (MALME-3M melanoma): 3.28 µM and 3.38 µM
TGI (SK-MEL-2 melanoma): 3.42 µM and 3.49 µM
TGI (KM12 colon): 3.13 µM and 3.35 µM
TGI (UACC-257 melanoma): 3.59 µM and 3.69 µM
GI50 (CAKI-1 renal): 1.48 µM
TGI (CAKI-1 renal): 2.81 µM and 17.7 µM
TGI (SK-OV-3 ovarian): 4.75 µM and 5.99 µM
GI50 (ACHN renal): 1.56 µM and 2.37 µM
TGI (ACHN renal): 2.9 µM and 6.39 µM
TGI (MDA-N): 3.04 µM
TGI (OVCAR-4 ovarian): 5.6 µM
GI50 (SK-MEL-5 melanoma): 1.63 µM and 1.86 µM
TGI (SK-MEL-5 melanoma): 2.99 µM and 3.27 µM
GI50 (SK-MEL-28 melanoma): 1.83 µM and 2.55 µM
TGI (SK-MEL-28 melanoma): 3.27 µM and 5.97 µM
GI50 (SF-268 CNS): 1.85 µM and 3.76 µM
TGI (SF-268 CNS): 3.46 µM and 13.1 µM
GI50 (OVCAR-5 ovarian): 1.53 µM and 2.71 µM
TGI (OVCAR-5 ovarian): 2.87 µM and 7.52 µM
GI50 (SF-539 CNS): 1.72 µM and 2.39 µM
TGI (SF-539 CNS): 3.12 µM and 4.75 µM
GI50 (A498 renal): 1.47 µM
TGI (A498 renal): 2.82 µM and 6.07 µM
GI50 (OVCAR-3 ovarian): 1.85 µM and 2.69 µM
TGI (OVCAR-3 ovarian): 3.28 µM and 6.76 µM
GI50 (HCT-15 colon): 1.7 µM
TGI (HCT-15 colon): 3.12 µM and 4.7 µM
GI50 (HT29 colon): 1.65 µM
TGI (HT29 colon): 3.22 µM and 3.87 µM
GI50 (HCT-116 colon): 1.53 µM
TGI (HCT-116 colon): 2.87 µM and 3.47 µM
TGI (RXF 393 renal): 3.15 µM
GI50 (NCI-H23 lung): 1.68 µM and 2.39 µM
TGI (NCI-H23 lung): 3.15 µM and 6.12 µM
GI50 (SN12C renal): 1.79 µM and 3.13 µM
TGI (SN12C renal): 3.19 µM and 7.37 µM
GI50 (RPMI-8226 leukemia): 0.418 µM
TGI (RPMI-8226 leukemia): 2.04 µM and 5.07 µM
GI50 (HOP-92 NSCLC): 1.06 µM and 2.38 µM
TGI (HOP-92 NSCLC): 2.47 µM and 9.39 µM
GI50 (HS 578T breast): 1.96 µM and 3.92 µM
TGI (HS 578T breast): 4.05 µM and 12.2 µM
GI50 (MOLT-4 leukemia): 1.32 µM
TGI (MOLT-4 leukemia): 3.16 µM and 4.34 µM
GI50 (SNB-19 CNS): 1.53 µM and 5.66 µM
TGI (SNB-19 CNS): 2.92 µM and 13.5 µM
GI50 (SF-295 CNS): 1.38 µM and 2.84 µM
TGI (SF-295 CNS): 2.7 µM and 6.54 µM
TGI (NCI-H522 lung): 3.19 µM and 3.27 µM
GI50 (NCI-H460 lung): 1.81 µM
TGI (NCI-H460 lung): 3.4 µM and 3.95 µM
GI50 (SNB-75 CNS): 1.37 µM and 3.96 µM
TGI (SNB-75 CNS): 2.69 µM and 10.6 µM
GI50 (MDA-MB-435): 1.67 µM
TGI (MDA-MB-435): 3.05 µM and 3.42 µM
GI50 (OVCAR-8 ovarian): 1.87 µM and 2.2 µM
TGI (OVCAR-8 ovarian): 3.62 µM and 4.59 µM
GI50 (MCF7 breast): 1.61 µM
TGI (MCF7 breast): 3.08 µM and 3.42 µM
GI50 (IGROV1 ovarian): 2.02 µM
TGI (IGROV1 ovarian): 3.1 µM and 4.89 µM
GI50 (786-0 renal): 1.57 µM
TGI (786-0 renal): 3.16 µM and 3.48 µM
TGI (COLO 205 colon): 3.42 µM and 3.15 µM
TGI (LOX IMVI melanoma): 3.13 µM and 3.07 µM
GI50 (SR leukemia): 0.362 µM
TGI (SR leukemia): 2.17 µM and 4.69 µM
GI50 (HCC-2998 colon): 0.53 µM
TGI (HCC-2998 colon): 1.76 µM and 3.07 µM
GI50 (UO-31 renal): 1.44 µM and 4.96 µM
TGI (UO-31 renal): 2.85 µM and 18.3 µM
TGI (SW-620 colon): 3.33 µM and 3.36 µM
GI50 (BT-549 breast): 1.7 µM
TGI (BT-549 breast): 3.08 µM
GI50 (NCI-H226 lung): 1.73 µM and 2.56 µM
TGI (NCI-H226 lung): 3.21 µM and 6.83 µM
GI50 (T-47D breast): 1.66 µM and 2.33 µM
TGI (T-47D breast): 3.31 µM and 6.2 µM
GI50 (MDA-MB-231 breast): 1.72 µM and 2.42 µM
TGI (MDA-MB-231 breast): 3.16 µM and 5.65 µM
GI50 (EKVX NSCLC): 1.96 µM and 4.22 µM
TGI (EKVX NSCLC): 4.3 µM and 11.6 µM
GI50 (K-562 leukemia): 1.2 µM and 1.91 µM
TGI (K-562 leukemia): 2.94 µM and 4.06 µM
GI50 (HL-60(TB) leukemia): 1.43 µM
TGI (HL-60(TB) leukemia): 3.67 µM and 4.11 µM
GI50 (TK-10 renal): 1.72 µM and 2.16 µM
TGI (TK-10 renal): 3.23 µM and 4.95 µM
GI50 (U251 CNS): 1.53 µM
TGI (U251 CNS): 2.86 µM and 3.34 µM
